Laboratory results reported in PubChem BioAssay (NCI).
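Growth conditions: 96-well plates. Treatment: test compound, 48 hours, 5 concentrations. Analysis: linear interpolation between bracketing concentrations; unreached endpoints set to highest concentration. TGI: concentration producing complete growth inhibition.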

Legend:
Assay in all cases: NCI anticancer screen, dose series, 48 h
SK-MEL-5 melanoma = tested on: SK-MEL-5 melanoma
CAKI-1 renal = tested on: CAKI-1 renal
NCI-H460 lung = tested on: NCI-H460 lung
MDA-N = tested on: MDA-N
SNB-75 CNS = tested on: SNB-75 CNS
PC-3 prostate = tested on: PC-3 prostate
BT-549 breast = tested on: BT-549 breast
CCRF-CEM leukemia = tested on: CCRF-CEM leukemia
NCI-H226 lung = tested on: NCI-H226 lung
NCI-H522 lung = tested on: NCI-H522 lung
MDA-MB-231 breast = tested on: MDA-MB-231 breast
HS 578T breast = tested on: HS 578T breast
MCF7 breast = tested on: MCF7 breast
SR leukemia = tested on: SR leukemia
DU-145 prostate = tested on: DU-145 prostate
SF-295 CNS = tested on: SF-295 CNS
IGROV1 ovarian = tested on: IGROV1 ovarian
NCI/ADR-RES ovarian = tested on: NCI/ADR-RES ovarian
SK-MEL-28 melanoma = tested on: SK-MEL-28 melanoma
T-47D breast = tested on: T-47D breast

| Compound | TGI (SK-MEL-5 melanoma) | TGI (CAKI-1 renal) | TGI (NCI-H460 lung) | TGI (MDA-N) | TGI (SNB-75 CNS) | TGI (PC-3 prostate) | TGI (BT-549 breast) | TGI (CCRF-CEM leukemia) | TGI (NCI-H226 lung) | TGI (NCI-H522 lung) | TGI (MDA-MB-231 breast) | TGI (HS 578T breast) | TGI (MCF7 breast) | TGI (SR leukemia) | TGI (DU-145 prostate) | TGI (SF-295 CNS) | TGI (IGROV1 ovarian) | TGI (NCI/ADR-RES ovarian) | TGI (SK-MEL-28 melanoma) | TGI (T-47D breast) |
| --- | --- | --- | --- | --- | --- | --- | --- | --- | --- | --- | --- | --- | --- | --- | --- | --- | --- | --- | --- | --- |
| CC(=O)N(CC(=O)C(=O)NNc1ccoc1)c1ccc(Cl)cc1 | > 100 µM | > 100 µM | > 100 µM | > 100 µM | > 100 µM | > 100 µM | > 100 µM | > 100 µM | > 100 µM | > 100 µM | > 100 µM | > 100 µM | > 100 µM | > 100 µM | > 100 µM | > 100 µM | > 100 µM | > 100 µM | > 100 µM | > 100 µM |
| C[C@@]1(OC(=O)c2cc([N+](=O)[O-])cc([N+](=O)[O-])c2)C[C@@H]2CCCC[C@@H]21 | > 100 µM | > 100 µM | > 100 µM | > 100 µM | > 100 µM | > 100 µM | > 100 µM | > 100 µM | > 100 µM | > 100 µM | > 100 µM | > 100 µM | > 100 µM | > 100 µM | > 100 µM | > 100 µM | > 100 µM | > 100 µM | > 100 µM | > 100 µM |
| COc1ccc(NC(=O)C(=O)Cc2nc3ccc(C(=O)c4ccccc4)cc3[nH]c2=O)c([N+](=O)[O-])c1 | 68.8 µM | > 100 µM | > 100 µM | > 100 µM | 90.2 µM | > 100 µM | > 100 µM | 61.4 µM | 39.8 µM | 51.4 µM | > 100 µM | > 100 µM | > 100 µM | 51.1 µM | > 100 µM | > 100 µM | 60.7 µM | 33.2 µM | > 100 µM | 68.9 µM |
| COC1=C2CC(C)CC(OC)C(OC(=O)CCCN)C(C)/C=C(\C)C(OC(N)=O)C(OC)/C=C\C=C(/C)C(=O)NC(=CC1=O)C2=O (stereo not given) | 22.4 µM | 23.3 µM | 36.5 µM | 20.7 µM | 36.3 µM | 22.4 µM | 15.8 µM | 3.59 µM | 33.3 µM | 1.96 µM | 36.1 µM | 40.7 µM | 13.2 µM | 21.5 µM | 30.5 µM | 31.1 µM | 18.6 µM | 43.7 µM | 23.7 µM | 4.65 µM |
| O=C1C=C(C2=C(C3=CC(=O)c4ccccc4C3=O)C(=O)c3ccccc3C2=O)C(=O)c2ccccc21 | 23.9 µM | 11.7 µM | 39.6 µM | 5.65 µM | 35.3 µM | 47.6 µM | 28.9 µM | 1.43 µM | 29.9 µM | 7.17 µM | 13.8 µM | 40 µM | 29.6 µM | > 100 µM | 16.5 µM | 34 µM | 8.1 µM | 36.4 µM | 29.8 µM | 29.5 µM |
| O=c1[nH]c2nc[nH]c2c(=O)n1C1CCCCC1 | > 100 µM | > 100 µM | > 100 µM | > 100 µM | > 100 µM | > 100 µM | > 100 µM | > 100 µM | > 100 µM | > 100 µM | > 100 µM | > 100 µM | > 100 µM | > 100 µM | > 100 µM | > 100 µM | > 100 µM | > 100 µM | > 100 µM | > 100 µM |
| O=C(/C=C(\Nc1ccccc1O)c1ccc(Br)cc1)C(Cl)(Cl)Cl | 27.7 µM | 20.7 µM | 12.9 µM | 17.3 µM | 26.8 µM | 11.9 µM | 28.5 µM | 36.7 µM | 26.5 µM | 30.2 µM | 20.3 µM | 18.1 µM | 20 µM | 36.7 µM | 13.8 µM | 20 µM | 23.7 µM | 25.1 µM | 24.6 µM | 20.2 µM |
